This note sets out measurements from ChEMBL document CHEMBL3046969, “Synthesis, structure, and biological assay of cinnamic amides as potential EGFR kinase inhibitors” (Med Chem Res, 2013).

By IC50 is commonly meant the concentration needed to halve the response being measured. High values mean lower potency, low ones higher potency.

The target of assay [1] is Epidermal growth factor receptor (Homo sapiens, UniProt P00533). Kind of assay: Inhibition of autophosphorylation of His6-tagged EGFR cytoplasmic domain (unknown origin) expressed in Sf9 cells by DELFIA time resolved fluorometry. The assay is classed as cell-based.
The next assay relates to MCF7. The assay can be described thus: cells. The assay is classed as functional, cell-based. As to conditions: Homo sapiens, MCF7, 48 h.

Epidermal growth factor receptor, sequence (P00533 whole entry, the tested form may be a part): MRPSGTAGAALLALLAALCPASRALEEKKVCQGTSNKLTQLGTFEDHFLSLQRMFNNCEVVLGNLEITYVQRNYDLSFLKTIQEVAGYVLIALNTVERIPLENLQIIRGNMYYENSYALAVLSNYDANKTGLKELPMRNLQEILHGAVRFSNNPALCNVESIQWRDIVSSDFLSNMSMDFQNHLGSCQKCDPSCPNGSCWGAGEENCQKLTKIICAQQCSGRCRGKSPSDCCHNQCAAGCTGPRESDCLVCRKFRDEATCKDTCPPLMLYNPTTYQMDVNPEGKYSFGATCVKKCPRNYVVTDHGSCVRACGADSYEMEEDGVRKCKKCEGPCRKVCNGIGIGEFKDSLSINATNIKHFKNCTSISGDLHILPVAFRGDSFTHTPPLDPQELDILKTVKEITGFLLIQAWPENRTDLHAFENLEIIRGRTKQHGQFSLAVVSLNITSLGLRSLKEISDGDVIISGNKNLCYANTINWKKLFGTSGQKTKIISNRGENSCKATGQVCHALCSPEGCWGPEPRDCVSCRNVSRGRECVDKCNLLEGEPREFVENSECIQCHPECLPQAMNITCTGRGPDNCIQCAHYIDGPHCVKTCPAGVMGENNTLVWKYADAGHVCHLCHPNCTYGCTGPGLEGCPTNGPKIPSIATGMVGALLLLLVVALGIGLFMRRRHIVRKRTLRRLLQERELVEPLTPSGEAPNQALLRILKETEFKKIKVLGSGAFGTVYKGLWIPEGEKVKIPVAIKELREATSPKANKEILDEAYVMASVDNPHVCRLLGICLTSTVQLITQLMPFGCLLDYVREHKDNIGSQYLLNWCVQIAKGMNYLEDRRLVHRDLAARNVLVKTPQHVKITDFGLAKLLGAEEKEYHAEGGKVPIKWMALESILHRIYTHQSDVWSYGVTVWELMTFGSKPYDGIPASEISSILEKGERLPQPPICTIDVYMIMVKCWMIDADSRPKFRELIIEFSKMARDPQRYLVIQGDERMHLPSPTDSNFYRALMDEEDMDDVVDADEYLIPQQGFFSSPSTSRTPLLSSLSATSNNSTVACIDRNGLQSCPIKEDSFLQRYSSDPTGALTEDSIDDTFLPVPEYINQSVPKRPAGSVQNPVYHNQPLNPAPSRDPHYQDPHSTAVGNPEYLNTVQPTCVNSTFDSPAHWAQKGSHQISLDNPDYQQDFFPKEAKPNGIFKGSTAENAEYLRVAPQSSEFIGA
Description for MCF7: Antiproliferative activity against Homo sapiens (human) MCF-7 cells overexpressing EGFR assessed as inhibition of cell survival after 48 hr by MTT assay

Consider `CC(C)c1ccc(NC(=O)/C=C/c2ccccc2)cc1`, for which the figures for the IC50 (in assay [1]; in the assay with MCF7) were 14.6 µM and 5.39 µM, respectively.

For the molecule `CCOc1ccccc1NC(=O)/C=C/c1ccccc1`, the IC50 is 9.35 µM in assay [1] and 2.43 µM with MCF7.

Regarding `CCOc1ccc(NC(=O)/C=C/c2ccccc2)cc1`, the IC50 is 10.2 µM in assay [1] and 3.3 µM in the assay with MCF7.

In the case of `O=C(/C=C/c1ccccc1)Nc1ccc(F)cc1F`, the IC50 turned out to be 11.7 µM in assay [1] and 4.14 µM in the assay on MCF7.

Take `O=C(/C=C/c1ccccc1)Nc1cc(F)cc(F)c1`: the IC50 in assay [1] amounted to 13.2 µM; in the assay with MCF7, 4.65 µM.

Regarding `O=C(/C=C/c1ccccc1)Nc1cc(F)c(F)c(F)c1`, the IC50 worked out at 12.9 µM in assay [1] and 2.89 µM in the assay on MCF7.

`O=C(/C=C/c1ccccc1)Nc1ccc(Cl)cc1Cl`: the IC50 in assay [1] was found to be 16.2 µM; in the assay on MCF7, 4 µM.

As for `O=C(/C=C/c1ccccc1)Nc1cc(Cl)cc(Cl)c1`, the figures for the IC50 (in assay [1]; with MCF7) were 13.9 µM and 4.47 µM, respectively.

Turning to `O=C(/C=C/c1ccccc1)Nc1ccccc1Br`, the IC50 in assay [1] turned out to be 15.7 µM; with MCF7, 4.05 µM.

Molecule `C#Cc1cccc(Nc2ncnc3cc(OCCOC)c(OCCOC)cc23)c1` [ERLOTINIB] returned an IC50 in the assay on MCF7 of 0.22 µM.

In the case of `CCCCCCCCCCCCNC(=O)/C=C/c1ccccc1` [N-DODECYLCINNAMAMIDE], the IC50 in assay [1] was found to be 38.5 µM; with MCF7, 13.4 µM.

As to `Cc1cccc(NC(=O)/C=C/c2ccccc2)c1` [N-M-TOLYLCINNAMAMIDE], the IC50 came to 19.7 µM in assay [1] and 5.83 µM in the assay with MCF7.

With `Cc1ccccc1NC(=O)/C=C/c1ccccc1` [N-O-TOLYLCINNAMAMIDE], the IC50 in assay [1] amounted to 12.3 µM; in the assay on MCF7, 3.17 µM.

With `Cc1ccc(NC(=O)/C=C/c2ccccc2)cc1` [N-P-TOLYLCINNAMAMIDE], the IC50 turned out to be 12.7 µM in assay [1] and 3.26 µM in the assay with MCF7.

`CC(C)(C)NC(=O)/C=C/c1ccccc1` [N-TERT-BUTYLCINNAMAMIDE]: the IC50 in assay [1] turned out to be 29.8 µM; in the assay on MCF7 it was 11.1 µM.
